According to PMC9816194, “Use of the head-twitch response to investigate the structure–activity relationships of 4-thio-substituted 2,5-dimethoxyphenylalkylamines” (Psychopharmacology, 2022):
Read-outs that look alike come from different tables or passages of the source.

Tests used:
male C57BL/6 J mice = experiment: Head-twitch response (HTR), magnetometer coil recording; format: in vivo; conditions: for HTR Counts (Mean ± SEM): 30 min; for ED50: Mus musculus, 0.5 h, HTR, IP, 30 min recording, male C57BL/6 J mice; for maximum number of head twitches (mean ± SEM): during the 30-min assessment period; for reduction of HTR potency versus 2C-T-7: replacement of the 4-n-propylthio group of 2C-T-7
Description: Male C57BL/6 J mice (Jackson Laboratory, Bar Harbor, ME) were housed in a vivarium at the University of California San Diego (UCSD), which is an AAALAC-approved animal facility that complies with Federal and State requirements for care and treatment of laboratory animals. The mice (6–8 weeks old) were housed in a climate-controlled room with a reversed light-cycle (lights on at 19:00 h, off at 07:00 h) up to 4 animals per cage. Food and water were provided ad libitum, except during behavioral testing which occurred between 10:00 and 18:00 h. All experiments were conducted according to NIH guidelines and were approved by the UCSD animal care committee.
Head movement was recorded using a head-mounted magnet and a magnetometer coil (Halberstadt and Geyer [2013]). Briefly, mice were anesthetized, a small incision was made in the scalp, and a neodymium magnet was attached to the dorsal surface of the cranium using dental cement. Following a 1–2-week recovery period, behavioral experiments were conducted in a well-lit room with at least 7 days between sessions to avoid any carryover effects. Mice were treated with vehicle or test compound and then placed in a glass cylinder surrounded by a magnetometer coil and activity was recorded for 30 min. All test substances were administered IP dissolved in saline using an injection volume of 5 mL/kg. Coil voltage was filtered (5–10 kHz lowpass), digitized (20 kHz sampling rate), and saved to disk using a Powerlab/8SP with LabChart v 7.3.2 (ADInstruments, Colorado Springs, CO). To detect head twitches, events in the recordings were converted into scalograms using a wavelet transform and then the images were classified using a multistage approach combining the deep convolutional neural network (CNN) ResNet-50 with a support vector machine (SVM) algorithm (Halberstadt [2020]). HTR counts were analyzed using a one-way Welch analysis of variance (ANOVA). Post hoc pairwise comparisons were performed using Dunnett’s test. […] Median effective doses (ED50 values) and 95% confidence intervals were calculated using nonlinear regression (Prism ver. 9.0.2, GraphPad Software Inc, San Diego, CA, USA).

humans = conditions: cited from earlier work; for Human potency range: dose range active as psychedelic in humans; for Human active dose range: ref Shulgin and Shulgin 1991
human 5-HT2A receptor = human 5-HT2A receptor (Homo sapiens, UniProt P28223); parameters: expressed in transfected cells; host or cells: HEK 293 (transient), membrane preparations; conditions: read-out: 5-HT2A Ki; [3H]ketanserin; ref Luethi et al. (2018); cited from earlier work
mice = conditions: ref Gonzalez-Maeso et al. 2007; Halberstadt and Geyer 2013; cited from earlier work
[1] = read-out: ED50 µmol/kg (95% CI)

human 5-HT2A receptor, sequence (P28223 whole entry): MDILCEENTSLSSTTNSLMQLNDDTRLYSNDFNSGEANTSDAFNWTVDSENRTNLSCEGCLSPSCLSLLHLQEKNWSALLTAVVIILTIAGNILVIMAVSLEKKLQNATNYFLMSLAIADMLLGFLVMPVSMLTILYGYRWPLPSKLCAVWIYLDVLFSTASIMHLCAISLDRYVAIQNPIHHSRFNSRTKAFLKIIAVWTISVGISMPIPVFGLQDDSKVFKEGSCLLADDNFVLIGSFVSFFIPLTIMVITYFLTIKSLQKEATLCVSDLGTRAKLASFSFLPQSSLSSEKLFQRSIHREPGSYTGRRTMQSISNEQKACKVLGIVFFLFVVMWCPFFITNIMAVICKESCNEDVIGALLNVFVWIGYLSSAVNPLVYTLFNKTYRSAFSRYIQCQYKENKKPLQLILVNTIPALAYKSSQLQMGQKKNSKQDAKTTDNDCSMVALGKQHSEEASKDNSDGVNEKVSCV

Compound	HTR Counts (Mean ± SEM) (male C57BL/6 J mice; 1.5 mg/kg IP)	HTR Counts (Mean ± SEM) (male C57BL/6 J mice; 3 mg/kg IP)	HTR Counts (Mean ± SEM) (male C57BL/6 J mice; 6 mg/kg IP)	HTR Counts (Mean ± SEM) (male C57BL/6 J mice; 12 mg/kg IP)	ED50 (male C57BL/6 J mice; [1])	ED50 (male C57BL/6 J mice; read-out: ED50 mg/kg (95% CI))	Ki (human 5-HT2A receptor)	HTR Counts (Mean ± SEM) (male C57BL/6 J mice; 0.3 mg/kg IP)	HTR Counts (Mean ± SEM) (male C57BL/6 J mice; 1 mg/kg IP)	HTR Counts (Mean ± SEM) (male C57BL/6 J mice; 10 mg/kg IP)	further results
COc1cc(SC)c(OC)cc1CCN.Cl [Compound 2C-T, 2,5-Dimethoxy-4-methylthiophenethylamine hydrochloride]	22.4 ± 5.9	49.3 ± 3.1	61.0 ± 4.7	97.2 ± 8.1	13.8 µmol/kg	3.65 mg/kg	49 nM	–	–	–	HTR Counts (Mean ± SEM) (male C57BL/6 J mice; 24 mg/kg IP): 64.8 ± 6.0; maximum number of head twitches (mean ± SEM) (male C57BL/6 J mice): 97.2 ± 8.1; Human potency range (humans; ref Shulgin and Shulgin (1991)): 60–100 mg ^[5]; Human active dose range (humans; Shulgin et al. 1991): 60 to 100 mg
C=C(C)CSc1cc(OC)c(CCN)cc1OC.Cl [Compound 2C-T-3, 2,5-dimethoxy-4-methallylthiophenethylamine hydrochloride]	–	67.6 ± 5.4	–	–	6.12 µmol/kg	1.86 mg/kg	11 nM	11.3 ± 3.6	26.2 ± 3.4	67.8 ± 7.5	HTR Counts (Mean ± SEM) (male C57BL/6 J mice; 30 mg/kg IP): 2.2 ± 1.4; reduction of HTR potency versus 2C-T-7 (male C57BL/6 J mice): more than 50%
C=CCSc1cc(OC)c(CCN)cc1OC.Cl [Compound 2C-T-16, 4-allylthio-2,5-dimethoxyphenethylamine hydrochloride]	49.6 ± 11.1	101.6 ± 20.4	100.6 ± 9.6	51.2 ± 18.3	5.8 µmol/kg	1.68 mg/kg	9.2 nM	–	–	–	HTR potency relative to 2C-T-7 (male C57BL/6 J mice; mouse, in vivo): about 50%; reduction of HTR potency versus 2C-T-7 (male C57BL/6 J mice): more than 50%
CCCCSc1cc(OC)c(CCN)cc1OC.Cl [Compound 2C-T-19, 4-n-butylthio-2,5-dimethoxyphenethylamine hydrochloride]	–	26.6 ± 9.4	–	–	3.27 µmol/kg	1 mg/kg	6.9 nM	14.2 ± 3.4	19.8 ± 1.1	12.0 ± 4.1	maximum number of head twitches (mean ± SEM) (male C57BL/6 J mice): 26.6 ± 9.4
COc1cc(SCC(F)F)c(OC)cc1CCN.Cl [Compound 2C-T-21.5, 4-(2,2-difluoroethylthio)-2,5-dimethoxyphenethylamine hydrochloride]	26.0 ± 5.4	39.4 ± 7.2	85.6 ± 9.8	40.4 ± 13.0	9.97 µmol/kg	3.13 mg/kg	14 nM	–	–	–	Human potency range (humans; ref Trachsel et al. (2013)): 12–30 mg ^[6]; Human active dose range (humans; p.o., Trachsel et al. 2013): 12 to 30 mg
COc1cc(SCCCF)c(OC)cc1CCN.Cl [Compound 2C-T-28, 4-(3-fluoropropylthio)-2,5-dimethoxyphenethylamine hydrochloride]	–	42.0 ± 6.1	–	–	3.49 µmol/kg	1.08 mg/kg	17 nM	7.4 ± 2.0	25.4 ± 4.1	27.2 ± 7.4	Human active dose range (humans; p.o., Trachsel et al. 2013): 8 to 20 mg
CCN(CC)C(=O)[C@@H]1C=C2c3cccc4[nH]cc(c34)C[C@H]2N(C)C1 [LSD, lysergic acid diethylamide, reference compound]	–	–	–	–	–	–	–	–	–	–	induction of HTR (in words) (mice): induces the HTR
COc1cc(CC(C)N)cc(OC)c1OC (stereo not drawn) [TMA, 3,4,5-trimethoxyamphetamine, reference compound]	–	–	–	–	–	–	–	–	–	–	Human potency range (humans; ref Shulgin and Shulgin (1991)): 100 to 250 mg
CCN(CC)C(=O)N[C@H]1C=C2c3cccc4[nH]cc(c34)C[C@H]2N(C)C1 [lisuride, reference compound]	–	–	–	–	–	–	–	–	–	–	induction of HTR (in words) (mice): does not induce the response
